Test results as given in PubChem BioAssay (NCI).
Values joined by “and” are separate entries in the source; they are usually repeats but may differ in a detail not shown here. Equal values may be shown once.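 48-hour exposure; five concentrations; linearly interpolated endpoints. GI50 is the concentration that inhibits growth by half. TGI: concentration producing complete growth inhibition.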

How the values were obtained:
Test in all cases: growth of human tumour cells (NCI), 48 h
SNB-19 CNS = system: SNB-19 CNS
RXF 393 renal = system: RXF 393 renal
PC-3 prostate = system: PC-3 prostate
EKVX NSCLC = system: EKVX NSCLC
NCI-H460 lung = system: NCI-H460 lung
HCT-116 colon = system: HCT-116 colon
SR leukemia = system: SR leukemia
CAKI-1 renal = system: CAKI-1 renal
SF-295 CNS = system: SF-295 CNS
OVCAR-4 ovarian = system: OVCAR-4 ovarian

| SMILES | GI50 (SNB-19 CNS) | TGI (SNB-19 CNS) [µM] | GI50 (RXF 393 renal) [µM] | TGI (RXF 393 renal) [µM] | GI50 (PC-3 prostate) | TGI (PC-3 prostate) [µM] | GI50 (EKVX NSCLC) [µM] | TGI (EKVX NSCLC) [µM] | GI50 (NCI-H460 lung) [µM] | TGI (NCI-H460 lung) [µM] | GI50 (HCT-116 colon) [µM] | TGI (HCT-116 colon) [µM] | GI50 (SR leukemia) [µM] | TGI (SR leukemia) [µM] | GI50 (CAKI-1 renal) [µM] | TGI (CAKI-1 renal) [µM] | GI50 (SF-295 CNS) [µM] | TGI (SF-295 CNS) [µM] | GI50 (OVCAR-4 ovarian) [µM] | TGI (OVCAR-4 ovarian) [µM] |
| --- | --- | --- | --- | --- | --- | --- | --- | --- | --- | --- | --- | --- | --- | --- | --- | --- | --- | --- | --- | --- |
| C=C(C)[C@@H]1CC[C@]2(C(=O)NCCNCCNCCN)CC[C@]3(C)[C@H](CC[C@@H]4[C@@]5(C)CCC(=O)C(C)(C)[C@@H]5CC[C@]43C)[C@@H]12 | 8.5 µM | 18.1 | 5.6 | 12.5 | 6.26 µM | 13.1 | 7.34 | 14 | 9.4 | 18.1 | 6.65 | 14.9 | 5.91 | 20.1 | 5.87 | 13.1 | 9.42 | 18.3 | 7.39 | 15.3 |
| CN1CCC(n2[nH]c(-c3ccccc3)c(Cc3ccccc3)c2=O)CC1 | – | > 100 | – | > 100 | – | > 100 | – | > 100 | – | > 100 | – | > 100 | – | > 100 | – | > 100 | – | > 100 | – | > 100 |
| COc1ccc(-c2nc3sc4c(c3c(=O)[nH]2)CCCC4)c2ccccc12 | 0.411 µM and 0.0467 µM | > 100 | 0.253 | 0.799 | 0.343 µM and 0.0371 µM | > 100 | 1.8 | – | 0.381 | – | 0.371 | – | 0.418 | – | 0.45 | – | 0.314 | 1.2 | 2.23 | – |
| O=[N+]([O-])c1ccc(N=Nc2c(O)[nH]c3ccccc23)cc1 | – | > 100 | – | 35.4 | – | > 100 | – | > 72.1 | – | > 100 | – | > 96.4 | – | 45.9 | – | 40.4 | – | 48.7 | – | 57.6 |
| COc1ccc2c(c1)C(=O)c1c-2n(CCCN2CCOCC2)c(=O)c2cc([N+](=O)[O-])ccc12 | < 0.01 µM | > 36.5 | < 0.01 | – | < 0.01 µM | > 31.9 | 0.068 | 12 | < 0.01 | 0.069 | < 0.01 | 0.0454 | < 0.01 | – | < 0.01 | 0.53 | < 0.01 | – | < 0.0264 | 6.55 |
| COc1ccc(-n2c(C)nc3c(c(C)nn3-c3ccccc3)c2=O)cc1 | 0.064 µM | > 100 | 0.0609 | > 100 | 0.0603 µM | > 100 | 0.144 | > 100 | 0.0478 | > 40 | 0.0443 | 7.91 | 0.0391 | > 58.7 | 0.0461 | > 50.1 | 0.0594 | > 100 | 1.11 | > 100 |
| CC1(C)Cc2c(Br)c(Br)c(Br)c(OCC(O)CN3CCOCC3)c2O1 (centres undefined) | 13.4 µM | 26.4 | 3.69 | 13 | 7.93 µM | 20.7 | 7.72 | 20.5 | 9.29 | 25.8 | 15.4 | 45.2 | 5.14 | 18.4 | 12.3 | 27.4 | 5.17 | 20.3 | 19.3 | > 100 |
| Oc1ccc(CN(Cc2ccc(C(F)(F)F)cc2)Cc2ccc(O)c3ncccc23)c2cccnc12 | 0.0217 µM | > 100 | 0.0485 | – | < 0.0146 µM | > 100 | 0.0482 | > 100 | < 0.01 | 0.111 | < 0.01 | > 100 | 0.04 | > 100 | 0.0428 | – | 0.0182 | > 100 | 0.0429 | > 100 |
| CC(C)=CC1CC(C)C2(CCC3(C)CC4C(C(=O)CC4(C)O)/C(C=O)=C\CC32)O1 (centres undefined) | – | 0.607 | – | 0.098 | – | 0.14 | – | 0.346 | – | 0.283 | – | 0.15 | – | 0.0945 | – | 0.192 | – | 0.515 | – | 0.147 |
| NC(=O)NCCSC1CCCCC1O (centres undefined) | – | > 100 | – | > 100 | – | > 100 | – | > 100 | – | > 100 | – | > 100 | – | > 100 | – | > 100 | – | > 100 | – | > 100 |
| Cc1cc(C)c2c(N)c3cccc(C)c3nc2n1 | 2.21 µM | 8.73 | 1.64 | 3.57 | 2.44 µM | 7.61 | 3.17 | 33.5 | 1.4 | 4.22 | 0.667 | 3.85 | 0.703 | 3.94 | 2.25 | 8.35 | 1.44 | 8.07 | 2.29 | 8.1 |
| COc1ccc(-c2ccccc2)cc1-c1c(Nc2cc(Cl)cc(Cl)c2O)c(=O)c1=O | 1.84 µM | > 50 | 1.48 | > 50 | 1.37 µM | > 50 | 1.51 | > 50 | 1.55 | > 50 | 1.58 | > 50 | 1.61 | 21.8 | 1.33 | 4.83 | 1.26 | 3.69 | 1.59 | > 50 |
| CCN1CCC(CC(=O)Nc2n[nH]c3nc(-c4cccs4)c(Br)cc23)CC1 | 17.4 µM | > 25 | 5.51 | 16.8 | 10.4 µM | > 25 | > 25 | > 25 | 10.1 | > 25 | 7.81 | > 23.4 | 11.2 | > 25 | 4.29 | > 25 | 10.7 | > 25 | 11.5 | > 25 |
| c1cncc(CNc2ncn[nH]2)c1 | – | > 100 | – | > 100 | – | > 100 | – | > 100 | – | > 100 | – | > 100 | – | > 100 | – | > 100 | – | > 100 | – | > 100 |
| COc1cc2c3c(n(C)c(=O)c2cc1OC)-c1cc2c(cc1/C3=C/[C@H](N)CCCCN)OCO2 | 0.829 µM | 20.1 | 3.45 | 12.7 | 2 µM | 27.5 | 5.93 | > 24.8 | 0.196 | 1.62 | 0.564 | 2.24 | 0.123 | > 100 | 1.23 | 11.5 | 0.401 | 3.31 | 2.27 | 7.92 |
